One test relates to guinea pig back. Description: local anaesthetic activity in the test of the guinea pig back in vivo (intracutaneous infiltration). The settings on record: guinea pig back, cutaneous anaesthesia, 0.25 ml. The procedure:
(b) Evaluation of the local anaesthetic activity in the test of the guinea pig back in vivo in comparison with lidocaine.
The local anaesthetic activity was evaluated by the method of intracutaneous infiltration in the guinea pig back as described by Bulbring E. and Wajda I. [(J. Pharmacol. Exp. Ther. 85, 78, (1945)].
Female guinea pigs weighin 400-500 g were treated intracutaneously in 4 points of their back.
At 5 minutes intervals, it was determined the reactivity of the animal to pain in each area by considering the number of responses to 6 pain stimulations.
Compounds of formula I, compound R and lidocaine, dissolved at different concentration in physiological solution adjusting the pH at 7 by addition of NaHCO3 were injected under the skin at the constant volume of 0.25 ml.
The distribution of the treatments in the 4 areas of the back was carried out according to the scheme of the Latin square. Experiments were carried out in blind.
As an example, the ED50 values for compound No. 8, compound R and lidocaine determined at 5, 15 and 30 minutes after the administration are reported in table 4.

For test [1], the system named is receptors for benzodiazepins. The test is described as follows: displacement of 3H-flunitrazepam from benzodiazepine receptors, rat cerebral cortex membranes. It counts as binding. To be noted: 3H-flunitrazepam 1nM.
The subject of the next test is rat sciatic nerve. Description: local anaesthetic activity on sciatic nerve preparation in vitro.
The test system of test [2] is norepinephrine induced arrythmias in rat. The test is described as follows: inhibition of norepinephrine induced arrythmias in rat. The test is classed as in vivo. The settings on record: Rattus norvegicus, 50% reduction of arrythmia duration. The method, then: Male rats, weighing 300-400 g, narcotized with urethan (1.5 g/kg, i.p.) were used; one little probe was implanted into the jugular vein and another into the femoral vein for administering norepinephrine and the test substance respectively. The EGC was recorded in II derivation and from it the instantaneous heart rate was derived. Furthermore, the EGC wave was monitored on oscilloscope and made audible by mean of a loudspeaker. Norepinephrine (75 μg/kg/min. for 15 seconds, 7-8 μg/animal) was administered by means of a Braun perfusion apparatus. The dose of administered norepinephrine was established in preliminary tests so as to cause an arrythmia of a duration equal to or higher than 10 seconds. The arising time of the heart arrythmia starting from the beginning of the norepinephrine perfusion and the duration of the arrythmic phase were recorded. Tests of arrythmia duration for each animal were performed; thereafter the compounds of formula I and the compound R were administered intravenously or per os 2 minutes or 1 hour respectively before a fourth norepinephrine infusion. The activity of test compounds was evaluated as increasing percentage in the time of the arising of arrythmia as well as of the inhibition (duration of the arrythmic phase). For each dose at least 5 tests were performed. In table 9 we report as an example the ED50 values defined as 50% reduction of the duration of arrythmias after the administration of both compound No. 8 and compound R either intravenously (i.v.) or per os (p.o.).

Test [3] deals with reperfusion induced arrythmias in rat. Description: inhibition of reperfusion induced arrythmias in rat. It counts as in vivo. The settings on record: 3 mg/kg per os.
Test [4] concerns the target T1, contracturing effect of acetylcholine (Cavia porcellus, UniProt H0W1Z3).
T1 construct: Segments measuring 5-6 cm were drawn form the end portion of the small intestine; from tissue; host or cells: guinea pig terminal small intestine (ileum)
The test is described as follows: anticholinergic activity in vitro (contracturing effect of acetylcholine on isolated guinea pig small intestine). Further details: species or system Guinea pigs.

The test system of another test is Ca^++ receptors. The test is described as follows: displacement of 3H-nitrendipine from Ca++ receptors, rat brain membranes. To be noted: 3H-nitrendipine 1nM. The test is classed as binding. In general terms: Loss of bound radioactivity is the signal in a displacement assay; it reports binding, not function.
The test system of another test is 5-HT1 receptors. Description: affinity for 5-HT1 receptors (3H serotonin binding), rat cortex membranes. To be noted: 3H-serotonin 5 nM; rat frontal cortex membranes.
Another test has as its target 5-HT2 receptors (Rattus norvegicus, UniProt P14842). The test is described as follows: affinity for 5-HT2 receptors (3H-spiroperidol binding), rat cortex membranes. To be noted: 3H-spiroperidol 0.25 nM; rat frontal cortex membranes.
A further test concerns the target T2, 5-HT3 receptors (Rattus norvegicus, UniProt P35563).
T2 construct: Male albino rats weighing 300-400 g anaesthetized with urethan; from tissue; host or cells: whole anaesthetized rat (endogenous receptor on cardiac vagal afferents)
T2 sequence (P35563 24-483): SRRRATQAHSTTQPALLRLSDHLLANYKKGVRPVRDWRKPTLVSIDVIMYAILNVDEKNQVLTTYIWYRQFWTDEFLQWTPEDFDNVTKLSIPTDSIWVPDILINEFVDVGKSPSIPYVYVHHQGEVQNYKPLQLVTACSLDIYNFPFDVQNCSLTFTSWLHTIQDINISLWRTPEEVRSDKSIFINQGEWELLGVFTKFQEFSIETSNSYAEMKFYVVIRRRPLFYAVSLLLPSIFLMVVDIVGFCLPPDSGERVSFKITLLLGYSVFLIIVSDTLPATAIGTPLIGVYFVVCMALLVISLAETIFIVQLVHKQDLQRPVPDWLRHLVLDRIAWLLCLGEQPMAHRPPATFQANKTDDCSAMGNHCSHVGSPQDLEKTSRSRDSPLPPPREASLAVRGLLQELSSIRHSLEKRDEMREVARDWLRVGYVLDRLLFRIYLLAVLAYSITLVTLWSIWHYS
Description: anti-5-HT3 activity in vivo, inhibition of the Bezold-Jarisch effect. To be noted: intravenous, read-out: ED50 to the antagonism of the heart rate fall (Bezold-Jarisch effect). From the text:
(a) Evaluation of the anti-5-HT3 activity in vivo by the method of the inhibition of the Bezold-Jarisch effect. The followed method was described by Fozard J. R. et al. [Nature, 316, 126-131, (1985)]. Male albino rats weighing 300-400 g anaesthetized with urethan (1.25-1.5 g/kg i.p.) were used. A tracheal cannula to allow respiration, one little catheter implanted into the jugular vein for administering serotonin and another into the right femoral vein for the intravenous administration of the compounds of formula I and of compound R were used. The bolus injection into the jugular vein of a serotonin solution caused an abrupt reduction of the heart rate quantified as 100% of the effect. The evaluation of the anti-5-HT3 activity was performed by calculating ED50 values (μg/kg) to the antagonism of the heart rate fall.

Test [5] concerns the target T3, contracturing effect of histamine (Cavia porcellus, UniProt P31389).
T3 construct: Segments measuring 5-6 cm were drawn form the end portion of the small intestine; from tissue; host or cells: guinea pig terminal small intestine (ileum)
The test is described as follows: antihistaminic activity in vitro (contracturing effect of histamine on isolated guinea pig small intestine). Also on record: species or system Guinea pigs.

SMILES strings stand for the structures. “Also recorded” adds a separate entry of the source. Read-outs that look alike come from different tables or passages of the source.

One compound from patent publication US4988691A (priority 1989, dated 1991) can be followed below.

T1 sequence (H0W1Z3 1-590): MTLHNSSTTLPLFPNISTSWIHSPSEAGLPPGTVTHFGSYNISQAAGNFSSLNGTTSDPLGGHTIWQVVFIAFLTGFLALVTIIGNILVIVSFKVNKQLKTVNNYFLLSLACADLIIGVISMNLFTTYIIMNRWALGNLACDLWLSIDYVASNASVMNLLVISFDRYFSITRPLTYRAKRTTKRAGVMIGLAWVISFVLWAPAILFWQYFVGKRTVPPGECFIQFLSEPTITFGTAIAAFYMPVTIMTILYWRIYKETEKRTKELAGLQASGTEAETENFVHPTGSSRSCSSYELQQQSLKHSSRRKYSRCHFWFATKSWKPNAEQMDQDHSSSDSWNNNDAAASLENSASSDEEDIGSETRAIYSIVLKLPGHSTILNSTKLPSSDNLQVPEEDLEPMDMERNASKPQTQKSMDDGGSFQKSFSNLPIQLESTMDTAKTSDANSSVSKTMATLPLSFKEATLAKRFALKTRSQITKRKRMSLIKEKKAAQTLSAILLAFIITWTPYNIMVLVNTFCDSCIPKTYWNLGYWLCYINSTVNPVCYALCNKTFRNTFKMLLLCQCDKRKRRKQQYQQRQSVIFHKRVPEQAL
T3 sequence (P31389 whole entry): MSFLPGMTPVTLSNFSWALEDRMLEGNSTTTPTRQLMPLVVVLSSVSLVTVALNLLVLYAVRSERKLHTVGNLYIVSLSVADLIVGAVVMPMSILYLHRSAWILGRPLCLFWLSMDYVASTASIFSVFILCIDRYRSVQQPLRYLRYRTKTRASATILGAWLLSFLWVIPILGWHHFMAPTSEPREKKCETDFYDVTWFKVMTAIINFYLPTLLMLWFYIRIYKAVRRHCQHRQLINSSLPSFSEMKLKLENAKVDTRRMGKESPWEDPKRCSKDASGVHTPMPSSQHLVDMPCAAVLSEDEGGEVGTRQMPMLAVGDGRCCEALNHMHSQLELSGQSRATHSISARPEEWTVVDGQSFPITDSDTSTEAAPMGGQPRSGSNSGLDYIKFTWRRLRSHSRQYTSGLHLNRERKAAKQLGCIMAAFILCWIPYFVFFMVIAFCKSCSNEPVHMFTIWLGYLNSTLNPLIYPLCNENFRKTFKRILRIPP
Sequence of 5-HT2 receptors (P14842 whole entry): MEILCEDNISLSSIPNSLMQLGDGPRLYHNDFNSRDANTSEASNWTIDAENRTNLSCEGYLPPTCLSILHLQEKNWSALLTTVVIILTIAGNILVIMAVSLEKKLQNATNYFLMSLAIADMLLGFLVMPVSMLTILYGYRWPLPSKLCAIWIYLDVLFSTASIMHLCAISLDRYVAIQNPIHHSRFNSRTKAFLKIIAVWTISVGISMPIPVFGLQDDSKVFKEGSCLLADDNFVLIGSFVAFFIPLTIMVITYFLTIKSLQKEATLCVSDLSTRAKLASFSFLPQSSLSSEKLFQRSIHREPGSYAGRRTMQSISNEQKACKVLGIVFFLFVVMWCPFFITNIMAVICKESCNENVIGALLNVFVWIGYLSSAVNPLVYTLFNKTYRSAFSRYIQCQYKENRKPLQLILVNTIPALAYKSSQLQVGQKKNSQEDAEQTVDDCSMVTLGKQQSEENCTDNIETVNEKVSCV

The term ED50 denotes the midpoint of the dose-response relation. For the compound `CN1[C@@H]2CC[C@H]1C[C@@H](OC(=O)c1c[nH]c3ccccc13)C2` [R, 3-endo-tropanyl indol-3-yl carboxylate, reference compound], in the test with guinea pig back (5 min. after administration), the “ED50 (C.L. 95%), 5 min.” value is recorded as 2.5 (2.1-2.9) mM. Further, the “ED50 (C.L. 95%), 15 min.” value in the test on guinea pig back (15 min. after administration) is 3.3 (3.0-3.7) mM. In addition, in the test on guinea pig back (30 min. after administration), the “ED50 (C.L. 95%), 30 min.” value is 5.7 (5.2-6.2) mM. Besides, in test [1], the “Displacement activity at benzodiazepine receptors” value is 1,000. The “local anaesthetic activity (in words)” value in the test on rat sciatic nerve is listed as “good activity; also recorded: comparable with that of lidocaine”. Moreover, the IC50 in the test with rat sciatic nerve (rat sciatic nerve in vitro, 8 minutes contact, read-out: ED50 (C.L. 95%)) is 1300 µM; at 5-HT2 receptors it was 25 µM. Besides, the ED50 in [2] (iv, 2 min, i.v., 2 minutes before norepinephrine, read-out: ED50 i.v.) came to 0.65 mg/kg; in [2] (po, 1 hour before norepinephrine, read-out: ED50 p.o.) it was 4 mg/kg; on 5-HT3 receptors, 0.006 mg/kg. Further, the “% VF” value in test [3] (10 treated rats) was determined as 70%. Besides, the “% dead” value in test [3] (10 treated rats) was 30%. For the same compound, the incidence dead in test [3] (number of 10 treated rats) is 3. Also, the “incidence VF” value in test [3] (number of 10 treated rats, *** significance < 0.001) is listed as 7. Also, the figures for the Kb in [4] and in test [5] were 15.8 µM and 3.16 µM, respectively. Moreover, the “anticholinergic activity (in words)” value in [4] is “practically free of anticholinergic and antihistaminic activity”. For the same compound, the “Displacement activity at receptors of Ca++” value in the test with Ca^++ receptors is “inactive”. Further, in the test with 5-HT1 receptors, the “Affinity (IC50) to 5-HT1 receptors” value was “inactive”. Also, the “antihistaminic activity (in words)” value in [5] was “practically free of anticholinergic and antihistaminic activity”.
